# According to publication PMC11402846, “Does a postmortem redistribution affect the concentrations of the 7 azaindole-derived synthetic cannabinoid 5F-MDMB-P7AICA in tissues and body fluids following pulmonary administration to pigs?” (Archives of Toxicology, 2024):
# How the values were obtained:
# [1] = parameters: method as in Walle et al. [2023]; conditions: authentic fatal case, comparable survival time after drug intake; ref Walle et al. [2023]; cited from earlier work
# [2] = Perimortem and postmortem concentrations in tissues and body fluids after pulmonary administration of 5F-MDMB-P7AICA to pigs (LC-MS/MS); format: in vivo; conditions: pig
# Description: The experiments were conducted in compliance with the German legislation on protection of animals and the National Institutes of Health Guide for the Care and Use of Laboratory Animals (permission number 32/2018). Six domestic male pigs (Swabian Hall strain; body weight [BW] 40–51.2 kg, 3 months old) were kept with free access to water and standard daily food (OlymPig fattening feed, Raiffeisen, Münster, Germany). One night prior to the experiments, the animals were kept fasting. […] The room temperature was 22 ± 1 °C with a humidity of 55 ± 10%.
# As previously described (Doerr et al. [2020]; Schaefer et al. [2019], [2020a]), an ethanolic solution of 5 mg/mL 5F-MDMB-P7AICA was prepared. An aliquot of 1.600–2.048 mL was filled up with ethanol to a total volume of 2 mL, if needed to achieve a concentration of 200 µg per kg BW. The SC was administered inhalatively over 6.5–8 min, using a M-Neb flow + ventilation ultrasonic nebulizer MN-300/7 (Nebutec, Elsenfeld, Germany) in the inspiration-triggered mode.
# Animal euthanasia was conducted eight hours after the drug administration using T 61 (embutramide, 0.12 mL/kg BW, Intervet Deutschland GmbH, Unterschleißheim, Germany). Afterwards, the abdominal cavity was opened. Samples of the following organs, tissues and body fluids were collected (PMI 0) and stored at − 20 °C until further analysis: Brain (cerebrum), lungs and liver with no differentiation between the lobes, kidneys, muscle tissue (from the hindleg), adipose tissue (subcutaneous (sc), dorsal, perirenal), bile fluid, duodenum content, urine (only at PMI 0) and PB (V. jugularis) as well as CB.
# The abdominal cavity was sutured leaving the organs in situ and the animal bodies were kept at room temperature in a supine position. Analogously, samples were taken again after 24, 48 and 72 h (PMI 1–3), respectively. Yet, PM PB specimens were obtained by sampling the coagulated blood from the V. femoralis or V. brachialis. For this purpose, the whole vessel was sampled and the blood was drawn therefrom using a pipette with a wide lumen.
# Specimens were prepared according to a previous published method (Schaefer et al. [2017], [2019], [2020a]) with changes regarding the applied buffers and the amount of acetonitrile. An amount of 2 g of solid tissue (brain, lung, liver, kidney and muscle tissue) was homogenized (1:5 w/w with water), respectively and 1 g of body fluids (bile fluid, duodenum content, and urine) was diluted (1:10 w/w for bile and duodenum content, 1:5 w/w for urine, respectively, with water). The samples were stored at − 20 °C.
# To determine the standard addition calibration curves, four 0.5 g aliquots were added to 20 µL of an ethanolic stable-isotope-labeled internal standard solution (SIL-IS, 1 ng/20 µL AB-FUBINACA-d4) and 25 µL of ethanol or an ethanolic solution of the analytes.
# Subsequently, the solution was mixed with 500 µL of acetate buffer and 50 µL of β-glucuronidase/arylsulfatase and incubated for 2 h at 60 °C to induce enzymatic hydrolysis of the glucuronidated DBA (phase-II metabolite).
# For the following protein precipitation, the samples were mixed with 500 µL of acetonitrile and centrifuged at 3500g for 8 min. The supernatants were transferred to 1 mL phosphate buffer (pH 9) vortexed and centrifuged at 3500g for 8 min again.
# Solid phase extraction (SPE) was carried out using Strata C18 end capped cartridges (Phenomenex, Aschaffenburg, Germany), previously conditioned with 2 × 3 mL methanol and 3 mL phosphate buffer. After loading the samples, the columns were washed with 3 mL phosphate buffer, 3 mL acetic acid (0.25 M) and 3 mL deionized water, respectively. 60 μL acetone was added and columns were dried for 5 min using negative pressure (about 33 kPa). Thereafter, the analytes were eluted with a mixture of 1.5 mL methanol-acetone (1:1, v/v) and the eluate was evaporated under a gentle stream of nitrogen at 60 °C. […]
# [3] = test system: P-glycoprotein; parameters: method as in unpublished data of the authors; conditions: ref unpublished data of the authors; cited from earlier work
# [4] = 200 µg/kg BW inhalative, PMI 0 (8 h after administration)
# [5] = 200 µg/kg BW inhalative, PMI 1 (24 h after euthanasia, room temperature)
# [6] = 200 µg/kg BW inhalative, PMI 2 (48 h after euthanasia, room temperature)
# [7] = 200 µg/kg BW inhalative, PMI 3 (72 h after euthanasia, room temperature)
smiles,measurement,setting,value
"COC(=O)C(NC(=O)c1cn(CCCCCF)c2ncccc12)C(C)(C)C (stereo not shown) [5F-MDMB-P7AICA, methyl[2-[1-(5-fluoropentyl)-1H-pyrrolo[2,3-b]pyridin-3-yl]formamido]-3,3-dimethylbutanoate]",CB concentration in fatal case,[1],0.69 ng/mL
same,PB concentration in fatal case,[1],1.2 ng/mL
same,Mean concentration ± SD in CB (central blood),[2]; [4],0.21 ± 0.10 n = 6 ng/mL
same,Mean concentration ± SD in bile fluid,[2]; [4],11 ± 9.9 n = 6 ng/g
same,Mean concentration ± SD in brain,[2]; [4],0.33 ± 0.15 n = 6 ng/g
same,Mean concentration ± SD in dorsal fat,[2]; [4],30 ± 16 n = 6 ng/g
same,Mean concentration ± SD in duodenum content,[2]; [4],2.7 ± 3.1 n = 6 ng/g
same,Mean concentration ± SD in kidney,[2]; [4],No parent compound could be found and neg
same,Mean concentration ± SD in liver,[2]; [4],0.16 ± 0.043 n = 3 ng/g
same,Mean concentration ± SD in lung,[2]; [4],0.41 ± 0.26 n = 6 ng/g
same,Mean concentration ± SD in muscle,[2]; [4],0.62 ± 0.10 n = 6 ng/g
same,Mean concentration ± SD in perirenal fat,[2]; [4],33 ± 31 n = 6 ng/g
same,Mean concentration ± SD in s.c. fat,[2]; [4],51 ± 30 n = 6 ng/g
same,Mean concentration ± SD in urine,[2]; [4],No parent compound could be found and neg
same,Mean concentration ± SD in CB (central blood),[2]; [5],0.25 ± 0.10 n = 5 ng/mL
same,Mean concentration ± SD in PB (peripheral blood),[2]; [5],0.67 ± 0.37 n = 6 ng/mL
same,Mean concentration ± SD in bile fluid,[2]; [5],3.5 ± 3.1 n = 6 ng/g
same,Mean concentration ± SD in brain,[2]; [5],0.23 ± 0.10 n = 6 ng/g
same,Mean concentration ± SD in dorsal fat,[2]; [5],35 ± 26 n = 6 ng/g
same,Mean concentration ± SD in duodenum content,[2]; [5],0.44 ± 0.22 n = 6 ng/g
same,Mean concentration ± SD in kidney,[2]; [5],0.090–0.10 n = 2 ng/g
same,Mean concentration ± SD in liver,[2]; [5],0.21–0.29 n = 2 ng/g
same,Mean concentration ± SD in lung,[2]; [5],0.50 ± 0.085 n = 3 ng/g
same,Mean concentration ± SD in muscle,[2]; [5],0.77 ± 0.28 n = 6 ng/g
same,Mean concentration ± SD in perirenal fat,[2]; [5],30 ± 20 n = 6 ng/g
same,Mean concentration ± SD in s.c. fat,[2]; [5],53 ± 43 n = 6 ng/g
same,Mean concentration ± SD in CB (central blood),[2]; [6],0.20 ± 0.090 n = 5 ng/mL
same,Mean concentration ± SD in PB (peripheral blood),[2]; [6],0.58 ± 0.35 n = 6 ng/mL
same,Mean concentration ± SD in brain,[2]; [6],0.10 ± 0.065 n = 6 ng/g
same,Mean concentration ± SD in dorsal fat,[2]; [6],25 ± 15 n = 6 ng/g
same,Mean concentration ± SD in duodenum content,[2]; [6],0.59 ± 0.48 n = 5 ng/g
same,Mean concentration ± SD in kidney,[2]; [6],0.17 ± 0.16 n = 5 ng/g
same,Mean concentration ± SD in liver,[2]; [6],1.1 ± 2.0 n = 6 ng/g
same,Mean concentration ± SD in lung,[2]; [6],0.65 ± 0.37 n = 5 ng/g
same,Mean concentration ± SD in muscle,[2]; [6],1.0 ± 0.67 n = 6 ng/g
same,Mean concentration ± SD in perirenal fat,[2]; [6],32 ± 35 n = 6 ng/g
same,Mean concentration ± SD in s.c. fat,[2]; [6],40 ± 28 n = 6 ng/g
same,Mean concentration ± SD in CB (central blood),[2]; [7],0.24 ± 0.11 n = 5 ng/mL
same,Mean concentration ± SD in PB (peripheral blood),[2]; [7],0.43 ± 0.16 n = 6 ng/mL
same,Mean concentration ± SD in brain,[2]; [7],0.16 ± 0.16 n = 4 ng/g
same,Mean concentration ± SD in dorsal fat,[2]; [7],33 ± 27 n = 6 ng/g
same,Mean concentration ± SD in duodenum content,[2]; [7],0.89 ± 0.71 n = 6 ng/g
same,Mean concentration ± SD in kidney,[2]; [7],0.23 ± 0.088 n = 5 ng/g
same,Mean concentration ± SD in liver,[2]; [7],0.44 ± 0.18 n = 5 ng/g
same,Mean concentration ± SD in lung,[2]; [7],0.71 ± 0.54 n = 5 ng/g
same,Mean concentration ± SD in muscle,[2]; [7],2.3 ± 2.1 n = 6 ng/g
same,Mean concentration ± SD in perirenal fat,[2]; [7],22 ± 19 n = 6 ng/g
same,Mean concentration ± SD in s.c. fat,[2]; [7],35 ± 26 n = 6 ng/g
same,Concentration in bile fluid,"[2]; 200 µg/kg BW inhalative, PMI 3 (72 h after euthanasia, room temperature), only sampled from 2 pigs",3.6–7.4 n = 2^2 ng/g
same,Mean concentration ± SD in PB (peripheral blood),"[2]; 5F-MDMB-P7AICA 200 µg/kg BW inhalative, PMI 0 (8 h after administration)",0.57 ± 0.19 n = 6 ng/mL
same,Postmortem redistribution (PMR),[2]; 3 days storage at room temperature,no relevant PMR was observed
same,central-to-peripheral blood (C/P) concentration ratio,[2]; PMI 0,lower than 1
same,liver-to-peripheral blood (L/P) ratio,[2]; PMI 0,< 5
same,C/P concentration ratio,[2]; PMI 1–3,< 1
same,L/P concentration ratio,[2]; PMI 1–3,< 5
same,Concentration change in liver specimens,"[2]; PMI 2 and 3 versus PMI 0, p < 0.05",significant higher
same,Concentration change in muscle tissue,"[2]; from PMI 0 to PMI 3, p < 0.05",significantly increased
same,substrate of the P-glycoprotein,[3],is a substrate of the P-glycoprotein
